Reference: the supplement of paper PMC11451515

System: SEM cells
Assay: cell viability relative to DMSO control; higher = less cytotoxic
Conditions: 48 h
How it was run: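 Leukemia cells (NOMO1 or SEM, 500 cells/well; P12-Ichikawa, 1000 cells/well) were seeded in 5 μl in 1536-well plates after at least four passages of adaptation to each medium. They received library compounds in DMSO by pin dosing, 11 threefold points from 47 μM to 0.79 nM. Luminescence with CellTiter-Glo One was read after 48 h at 37°C. Viability is stated per plate relative to DMSO wells, with cell-free wells as background.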

[1] = HPLM + 10% dialyzed FBS, 0.000781 µM
[2] = HPLM + 10% dialyzed FBS, 0.00234 µM
[3] = HPLM + 10% dialyzed FBS, 0.00702 µM
[4] = HPLM + 10% dialyzed FBS, 0.0211 µM
[5] = HPLM + 10% dialyzed FBS, 0.0632 µM
[6] = HPLM + 10% dialyzed FBS, 0.19 µM
[7] = HPLM + 10% dialyzed FBS, 0.569 µM
[8] = HPLM + 10% dialyzed FBS, 1.71 µM
[9] = HPLM + 10% dialyzed FBS, 5.12 µM
[10] = HPLM + 10% dialyzed FBS, 15.4 µM
[11] = HPLM + 10% dialyzed FBS, 46.1 µM
[12] = RPMI 5 mM glucose + 10% dialyzed FBS, 0.000781 µM
[13] = RPMI 5 mM glucose + 10% dialyzed FBS, 0.00234 µM
[14] = RPMI 5 mM glucose + 10% dialyzed FBS, 0.00702 µM
[15] = RPMI 5 mM glucose + 10% dialyzed FBS, 0.0211 µM
[16] = RPMI 5 mM glucose + 10% dialyzed FBS, 0.0632 µM
[17] = RPMI 5 mM glucose + 10% dialyzed FBS, 0.19 µM
[18] = RPMI 5 mM glucose + 10% dialyzed FBS, 0.569 µM
[19] = RPMI 5 mM glucose + 10% dialyzed FBS, 1.71 µM
[20] = RPMI 5 mM glucose + 10% dialyzed FBS, 5.12 µM
[21] = RPMI 5 mM glucose + 10% dialyzed FBS, 15.4 µM
[22] = RPMI 5 mM glucose + 10% dialyzed FBS, 46.1 µM
[23] = RPMI 5 mM glucose + 10% FBS, 0.000781 µM
[24] = RPMI 5 mM glucose + 10% FBS, 0.00234 µM
[25] = RPMI 5 mM glucose + 10% FBS, 0.00702 µM
[26] = RPMI 5 mM glucose + 10% FBS, 0.0211 µM
[27] = RPMI 5 mM glucose + 10% FBS, 0.0632 µM
[28] = RPMI 5 mM glucose + 10% FBS, 0.19 µM
[29] = RPMI 5 mM glucose + 10% FBS, 0.569 µM
[30] = RPMI 5 mM glucose + 10% FBS, 1.71 µM
[31] = RPMI 5 mM glucose + 10% FBS, 5.12 µM
[32] = RPMI 5 mM glucose + 10% FBS, 15.4 µM
[33] = RPMI 5 mM glucose + 10% FBS, 46.1 µM

Row | SMILES | cell viability [1] [%] | cell viability [2] [%] | cell viability [3] [%] | cell viability [4] [%] | cell viability [5] [%] | cell viability [6] [%] | cell viability [7] [%] | cell viability [8] [%] | cell viability [9] [%] | cell viability [10] [%] | cell viability [11] [%] | cell viability [12] [%] | cell viability [13] [%] | cell viability [14] [%] | cell viability [15] [%] | cell viability [16] [%] | cell viability [17] [%] | cell viability [18] [%] | cell viability [19] [%] | cell viability [20] [%] | cell viability [21] [%] | cell viability [22] [%] | cell viability [23] [%] | cell viability [24] [%] | cell viability [25] [%] | cell viability [26] [%] | cell viability [27] [%] | cell viability [28] [%] | cell viability [29] [%] | cell viability [30] [%] | cell viability [31] [%] | cell viability [32] [%] | cell viability [33] [%]
1 | CN\1C(=O)/C(=C(\N=C1N2CCCC[S+]2([O-])=O)C(=O)NCC3=CC=C(F)C=C3)O | 98.9 | 107 | 104 | 97.3 | 98.5 | 96.6 | 96.9 | 107 | 98.3 | 109 | 91.2 | 104 | 95.1 | 103 | 116 | 121 | 97.8 | 107 | 111 | 85.5 | 111 | 95.3 |  |  |  |  |  |  |  |  |  |  | 
2 | OC[C@H]1O[C@@H](O[C@@H]2[C@@H](CO)O[C@](O)(CO)[C@H]2O)[C@H](O)[C@@H](O)[C@H]1O | 103 | 96.4 | 105 | 110 | 113 | 100 | 109 | 108 | 105 | 63.5 | 93.7 | 95.6 | 82.5 | 102 | 116 | 101 | 105 | 94.6 | 106 | 82.8 | 72.2 | 96.4 | 102 | 85 | 108 | 112 | 94.1 | 97.2 | 102 | 96.2 | 93.3 | 68.9 | 95.8
3 | O=NN(CCCl)C(=O)NC1CCCCC1 | 84.7 | 94.3 | 94.3 | 89.2 | 91.5 | 101 | 111 | 90.8 | 89.9 | 89.3 | 86.7 | 81.3 | 86.1 | 87.5 | 88.3 | 89.3 | 92.2 | 98.9 | 104 | 101 | 100 | 70.8 | 114 | 117 | 113 | 103 | 126 | 93.7 | 122 | 121 | 132 | 109 | 101
4 | Cc1ccccc1C(C(=O)NC1CCCCC1)N(C(=O)Cn1ccnc1C)c1cccc(F)c1 (stereo not given) | 109 | 31 | 118 | 111 | 109 | 130 | 127 | 124 | 114 | 100 | 92.7 | 84.5 | 27.9 | 100 | 105 | 102 | 88.5 | 110 | 95.2 | 97.4 | 93.6 | 90.6 | 112 | 108 | 96.9 | 103 | 98.4 | 114 | 112 | 121 | 110 | 84.1 | 88.9
5 | COc1cc2nc(N(C)CCCNC(=O)C3CCCO3)nc(N)c2cc1OC (stereo not given) | 53.9 | 66.5 | 58.9 | 80.3 | 84.7 | 84.9 | 75.5 | 89.3 | 74.2 | 79.2 | 73.3 | 69.7 | 67.7 | 69.5 | 97.7 | 89 | 93.7 | 74.1 | 87.3 | 75 | 77.4 | 67.2 | 60.7 | 61.4 | 64.1 | 71.7 | 87.1 | 102 | 82.9 | 75.3 | 73.4 | 76.4 | 62.2
6 | COc1cnc(N[S+](=O)([O-])c2ccc(N)cc2)nc1 | 75.9 | 96.2 | 85.7 | 86.1 | 93.2 | 94.6 | 91.9 | 93.1 | 109 | 102 | 103 | 75.9 | 91.6 | 106 | 104 | 93.7 | 107 | 108 | 115 | 117 | 106 | 118 | 94.9 | 97.4 | 99.7 | 104 | 101 | 107 | 113 | 97.3 | 107 | 102 | 105
7 | O=C(NOCC(O)CO)c1cc(Br)c(F)c(F)c1Nc1ccc(I)cc1F (stereo not given) | 66.2 | 76.3 | 73 | 78.6 | 77.2 | 83 | 80.4 | 62.4 | 46.3 | 60.7 | 44.1 | 73.3 | 95.8 | 67.4 | 83.1 | 81.6 | 67.5 | 54.1 | 61.1 | 39 | 37.1 | 42.1 | 63.8 | 92 | 76.8 | 90.1 | 94.4 | 80.3 | 70.8 | 69.3 | 52.7 | 45.7 | 37
8 | C[C@@H](NC1=CC=CC=C1C(O)=O)C/2=C/C(=C\N3C(=O)/C=C(\N=C23)N4CCOCC4)C | 69.7 | 76.5 | 91.3 | 77.7 | 87.8 | 77.7 | 84.3 | 79.1 | 61.1 | 13.4 | 19.8 | 65 | 76.4 | 91.7 | 87 | 92.7 | 77.8 | 70.3 | 63.9 | 44.1 | 9.08 | 11.2 | 89.1 | 92.3 | 117 | 92.8 | 104 | 90.6 | 98.2 | 87.5 | 55 | 8.88 | 13.3
9 | CC1(C)CCC[C@]2(C)[C@H]3CC(=O)O[C@]3(C)CC[C@@H]12 | 101 | 103 | 102 | 116 | 119 | 95.2 | 116 | 118 | 115 | 101 | 93.3 | 114 | 106 | 116 | 126 | 104 | 112 | 121 | 111 | 119 | 79.2 | 99.1 | 110 | 114 | 106 | 107 | 106 | 115 | 119 | 115 | 112 | 82.2 | 100
10 | C/C=C1\NC(=O)[C@H]2CSSCC/C=C\[C@H](CC(=O)N[C@H](C(C)C)C(=O)N2)OC(=O)[C@H](C(C)C)NC1=O | 81.1 | 89 | 95.1 | 101 | 5.64 | 4.52 | 4.32 | 4.63 | 4.25 | 3.1 | 4.21 | 73 | 106 | 85.9 | 90.4 | 5.18 | 4.76 | 4.87 | 4.53 | 4.12 | 2.58 | 4.19 | 100 | 103 | 105 | 81.5 | 4.85 | 4.94 | 4.25 | 4.39 | 4.14 | 3.14 | 4.36
11 | CC1(C)CC(=O)c2c(C(F)(F)F)nn(-c3ccc(C(N)=O)c(NC4CCC(O)CC4)c3)c2C1 (stereo not given) | 93.6 | 84.7 | 88.6 | 98 | 93.5 | 36.8 | 20.9 | 18.4 | 19.2 | 16.9 | 77.6 | 83.7 | 102 | 66.3 | 63.5 | 76.6 | 34.4 | 12.8 | 20.6 | 17.8 | 18.1 | 84.3 | 105 | 97.5 | 84.4 | 84.2 | 111 | 37.1 | 15.7 | 19.4 | 16.1 | 17.4 | 99.9
12 | C#Cc1cccc(Nc2ncnc3cc(OCCOC)c(OCCOC)cc23)c1 | 93.5 | 95.7 | 90.4 | 95.2 | 102 | 104 | 92.9 | 94.7 | 71.5 | 83 | 32.9 | 86.8 | 104 | 90.5 | 99.2 | 90.2 | 93.6 | 87.5 | 77.9 | 59.7 | 68.6 | 19.9 | 119 | 133 | 120 | 128 | 114 | 119 | 97.1 | 115 | 77.9 | 107 | 27.4
13 | COc1cccc2cc(-c3nc(C4CCC(C(=O)O)CC4)n4ncnc(N)c34)[nH]c12 (stereo not given) | 118 | 132 | 124 | 107 | 107 | 101 | 74.7 | 36.2 | 28.2 | 22.6 | 16.4 | 111 | 133 | 118 | 114 | 96 | 99.7 | 89.3 | 52.6 | 31.5 | 22.2 | 15.8 |  |  |  |  |  |  |  |  |  |  | 
14 | COc1nccc(-c2c(-c3ccc(F)cc3)ncn2C2CCNCC2)n1 | 98.2 | 114 | 120 | 107 | 120 | 114 | 113 | 110 | 102 | 98.7 | 81.7 | 69.4 | 117 | 144 | 113 | 116 | 114 | 104 | 126 | 110 | 95.8 | 79.5 |  |  |  |  |  |  |  |  |  |  | 
15 | CO[C@H]1/C=C/O[C@@]2(C)Oc3c(C)c(O)c4c(O)c(c5c(nc6cc(C)ccn65)c4c3C2=O)NC(=O)/C(C)=C\C=C\[C@H](C)[C@H](O)[C@@H](C)[C@@H](O)[C@@H](C)[C@H](OC(C)=O)[C@@H]1C | 100 | 97.7 | 100 | 107 | 92.5 | 112 | 113 | 104 | 47.2 | 70 | 1.92 | 104 | 109 | 98.6 | 109 | 90.2 | 96.8 | 97.1 | 82.1 | 32 | 50.8 | 1.61 | 106 | 120 | 109 | 125 | 94.9 | 102 | 115 | 111 | 40.5 | 63.1 | 4.47
16 | c1cncc(CN2CCC(n3ncc4c(N5CCOCC5)nc(-c5ccc6[nH]ccc6c5)nc43)CC2)c1 | 93.8 | 88.8 | 98.3 | 90 | 101 | 81 | 66.6 | 69.2 | 73.4 | 58.9 | 33.1 | 87.1 | 88.4 | 94.7 | 87.2 | 87.3 | 96.4 | 61.9 | 76.2 | 66.5 | 32.6 | 8.23 | 123 | 117 | 111 | 103 | 105 | 95.4 | 68.2 | 93 | 80.3 | 37.1 | 11.6
